This passage reports EC50 results from patent US8030354B2, “Substituted biphenyl GPR40 modulators” (Amgen Inc., priority 2007, dated 2011).

Assay [1] concerns the target T1, GPR40 (Homo sapiens, UniProt O14842). Description: Cell-based aequorin assay (CHO cells stably expressing GPR40 and aequorin). The arrangement: expressed in transfected cells; host or cells: CHO cells stably transfected with GPR40 and aequorin. The settings on record: activation of human GPR40, CHO cells, 0.01% HSA. In short, it runs like this: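 CHO cells stably co-expressing GPR40 and aequorin, loaded with coelenterazine (1 ug/mL, 2 h, room temperature) in H/HBSS with 20 mM Hepes and 0.01% fatty acid-free HSA. Serially diluted compounds added; luminescence recorded over 20 s. EC50 from dose-response of maximum relative light units.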

Assay [2] concerns the target T1, GPR40. Description: Inositol phosphate accumulation assay (A9_GPR40 cells). The arrangement: expressed in transfected cells; host or cells: CHO cells stably transfected with GPR40 and aequorin. Type of assay: cell-based. The settings on record: inositol phosphate assay, A9_GPR40 cells, 1 hour; read-out: IP3 EC50. In short, it runs like this:
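[^3H] inositol phosphate accumulation was measured by SPA after 1 h compound exposure at 37° C in HBSS/10 mM LiCl containing HSA, ending with a 20 mM formic acid quench. The GPR40-transfected A9 cells had first been labelled overnight (16 h) with 1 μCi/mL ^3H-inositol.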

For orientation: pEC50 means −log10 of the EC50, conventionally taken in molar units.

pEC50: −log10 of the molar value. Bounds are passed on as bounds.

T1 sequence (O14842 whole entry): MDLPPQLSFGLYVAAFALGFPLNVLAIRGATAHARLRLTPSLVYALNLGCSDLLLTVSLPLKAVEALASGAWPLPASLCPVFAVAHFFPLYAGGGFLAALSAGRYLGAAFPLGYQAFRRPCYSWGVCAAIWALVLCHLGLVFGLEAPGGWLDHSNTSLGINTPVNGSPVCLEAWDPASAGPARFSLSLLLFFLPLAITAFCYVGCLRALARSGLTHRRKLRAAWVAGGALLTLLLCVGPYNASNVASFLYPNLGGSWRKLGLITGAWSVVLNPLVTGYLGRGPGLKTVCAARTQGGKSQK

Turning to `CCCC(CC(=O)O)c1cccc(OCc2ccc(-c3cc(OC)ccc3F)c(C3CCCCCC3)c2)c1` (single isomer, unassigned) [Example 67.7, (3R)-3-(3-(((2-Cycloheptyl-2′-fluoro-5′-(methyloxy)-1,1′-biphenyl-4-yl)methyl)oxy)phenyl)hexanoic acid or (3S)-3-(3-(((2-cycloheptyl-2′-fluoro-5′-(methyloxy)-1,1′-biphenyl-4-yl)methyl)oxy)phenyl)hexanoic acid], the pEC50 is 6.00 to 7.00 at GPR40 [1] and 7.00 to 8.00 on GPR40 [2].

`COc1ccc(F)c(-c2ccc(COc3cccc([C@@H](CC(=O)O)CC4CC4)c3)cc2C(OC)C(C)(C)C)c1` (single isomer, unassigned) [Example 69.18, (3R)-4-Cyclopropyl-3-(3-(((2-(2,2-dimethyl-1-(methyloxy)propyl)-2′-fluoro-5′-(methyloxy)-1,1′-biphenyl-4-yl)methyl)oxy)phenyl)butanoic acid or (3S)-4-cyclopropyl-3-(3-(((2-(2,2-dimethyl-1-(methyloxy)propyl)-2′-fluoro-5′-(methyloxy)-1,1′-biphenyl-4-yl)methyl)oxy)phenyl)butanoic acid]: the pEC50 on GPR40 [1] was 6.00 to 7.00; at GPR40 [2], over 8.00.

Regarding `COc1ccc(F)c(-c2ccc(COc3cccc(C(CC(=O)O)CC4CC4)c3)cc2C2=CCCC2(C)C)c1` (single isomer, unassigned) [Example 69.6, (3R)-4-Cyclopropyl-3-(3-(((2-(5,5-dimethyl-1-cyclopenten-1-yl)-2′-fluoro-5′-(methyloxy)-1,1′-biphenyl-4-yl)methyl)oxy)phenyl)butanoic acid or (3S)-4-cyclopropyl-3-(3-(((2-(5,5-dimethyl-1-cyclopenten-1-yl)-2′-fluoro-5′-(methyloxy)-1,1′-biphenyl-4-yl)methyl)oxy)phenyl)butanoic acid], the pEC50 on GPR40 [1] was 6.00 to 7.00; on GPR40 [2], 7.00 to 8.00.

For the compound `CCC(CC(=O)O)c1cccc(OCc2ccc(-c3cc(OC)ccc3F)c(C(OC)C(C)(C)CC)c2)c1` (single isomer, unassigned) [Example 78.14], the pEC50 at GPR40 [1] was 7.00 to 8.00; at GPR40 [2], over 8.00.

Take `CCC[C@H](CC(=O)O)c1cccc(OCc2ccc(-c3cc(OC)ccc3F)c(C(C)(C)C)c2)c1` (single isomer, unassigned) [Example 43, (3R)-3-(3-(((2-(1,1-Dimethylethyl)-2′-fluoro-5′-(methyloxy)-1,1′-biphenyl-4-yl)methyl)oxy)phenyl)hexanoic acid or (3S)-3-(3-(((2-(1,1-dimethylethyl)-2′-fluoro-5′-(methyloxy)-1,1′-biphenyl-4-yl)methyl)oxy)phenyl)hexanoic acid]: the pEC50 on GPR40 [1] and on GPR40 [2] was 6.00 to 7.00 in each case.

For the compound `COc1ccc(F)c(-c2ccc(COc3cccc([C@@H](CC(=O)O)CC4CC4)c3)cc2C(O)(C(C)C)C(C)C)c1` (single isomer, unassigned) [Example 69.19, (3R)-4-Cyclopropyl-3-(3-(((2′-fluoro-2-(1-hydroxy-2-methyl-1-(1-methylethyl)propyl)-5′-(methyloxy)-1,1′-biphenyl-4-yl)methyl)oxy)phenyl)butanoic acid or (3S)-4-cyclopropyl-3-(3-(((2′-fluoro-2-(1-hydroxy-2-methyl-1-(1-methylethyl)propyl)-5′-(methyloxy)-1,1′-biphenyl-4-yl)methyl)oxy)phenyl)butanoic acid], the pEC50 on GPR40 [1] and at GPR40 [2] was 6.00 to 7.00 in each case.

As to `CCCCOc1cc(COc2cccc([C@H](CCC)CC(=O)O)c2)ccc1-c1cc(OC)ccc1F` (single isomer, unassigned) [Example 60, (3R)-3-(3-(((2-(Butyloxy)-2′-fluoro-5′-(methyloxy)-1,1′-biphenyl-4-yl)methyl)oxy)phenyl)hexanoic acid or (3S)-3-(3-(((2-(butyloxy)-2′-fluoro-5′-(methyloxy)-1,1′-biphenyl-4-yl)methyl)oxy)phenyl)hexanoic acid], the pEC50 on GPR40 [1] and at GPR40 [2] was 6.00 to 7.00 in each case.
